Reference: patent US6960613B2, “Treatment of neurotic disorders” (H. Lundbeck A/S, priority 1999, dated 2005)

Experiments:
[1] = tested on: schedule-induced polydipsia (water intake); test: Schedule-induced polydipsia in rats; assay type: in vivo, rat; settings: male wistar rats, oral 60 min prior to testing; Citalopram 40 mg/kg, Lu 26-054 20 mg/kg
From the text: Schedule-induced Polydipsia Food deprived rats exposed to a procedure in which food is delivered intermittently will drink large amounts of water if given the opportunity to do so. This behavioural phenomenon is called schedule-induced polydipsia and can be considered as an excessive expression of a normal behaviour. Schedule-induced polydipsia is regarded as a model of obsessive-compulsive disorder (Woods et al. 1993). Male wistar rats (Møllegard) housed in pairs and kept on a food-restricted diet (80% of normal body weight) for 2 weeks before the start of testing and throughout the duration of testing. To induce polydipsia rats were placed in test chambers where a pellet dispenser automatically dispensed one 60 mg food pellet every 60 seconds. Water was available at all times in the test chamber. Rats were tested 4-5 times per week, after 3-4 weeks training 70% of the rats were drinking >10 ml per 30 min test session. Once the rats had attained a steady drinking level compounds could be tested. Citalopram (40 mg/kg) or Lu 26-054 (20 mg/kg) were administered orally 60 min prior to testing and at 10:00 on the non-test days. The water intake was presented as a percentage of the pre-dosing (baseline) level.

[2] = tested on: footshock-induced ultrasonic vocalisation; test: Footshock-induced ultrasonic vocalisation test in adult rats; assay type: in vivo, rat; settings: male Wistar rats, drug given 30 min before test, four 1.0 mA footshocks
From the text: The Footshock-induced Vocalisation Test in Adult Rats. The footshock-induced vocalisation test in adult rats (described in detail in Sánchez C., Effect of serotonergic drugs on footshock-induced ultrasonic vocalization in adult male rats. Behav. Pharmacol. 1993; 4:267-277) is a test for anxiolytic and anti-panic effects. Male rats (Wistar WU, Charles River, Germany), weighing 150-175 g at the beginning of the study were used. Briefly, test cages (22 cm×22 cm×22 cm) made of grey Perspex and equipped with a metal grid floor were used. Footshocks were delivered from a two pole shocker and a microphone sensitive to ultrasounds in the range of 20-30 kHz was placed in the centre of the lid of the test cage. The ultrasounds were sent from the microphone to a preamplifier and converted from AC signals to DC signals in a signal rectifier. The accumulated time, in which the voltage of the rectified signal was larger than the voltage of a previously determined threshold level, was recorded. Twenty-four hours before the first test session the animals were primed. A rat was placed in each test cage and received, immediately thereafter, four 1.0 mA inescapable footshocks each of a duration of 10 sec and with an intershock interval of 5 sec. The animals were left in the test cage for 6 min after the last shock. […] The total time spent on vocalisation was recorded. […]

[3] = tested on: mice black and white box behaviour; test: Black and White Box Test in mice; assay type: in vivo, mouse; settings: male mice, pretreatment time 30 min, test duration 5 min
Description: Black and White Box Test This is a test for anxiolytic effects. The test model is further described in Sánchez, C. (1995) Pharmacol. Toxicol. 77, 71-78. Male mice (Lundbeck strain, Charles River, Germany) weighing 30-35 g were housed in groups of 4 in macrolon cages type II under a reversed 12 h day/night cycle (lights off 7 p.m.). The mice were adapted to the reversed light/dark cycle for at least 3 weeks prior to testing. The room temperature (21±2° C.), relative humidity (55±5%), and air exchange (16 times per h) were automatically controlled. The animals had free access to commercial food pellets and water. The test box used was designed as described by Sánchez (1995) (supra). […] The lower row of photocells (2 cm above cage floor) detected horizontal locomotor activity (crossing, entries, and time in each compartment), whereas the upper row of photocells (5 cm above cage floor) detected rearing activity. The accumulated data for 1 min intervals were recorded from 4 test boxed simultaneously and stored in a Paradox data base. […] The test duration was 5 min and the number of rears and line crossings between squares in both the black and the white compartment, number of entries into the black compartment and time spent in the white compartment were assessed.

Row | SMILES | water intake (percentage of pre-dosing baseline level) [1] | inhibition of vocalisation [2] | effect in black and white box model [3] | maximum effect, inhibition of vocalisation [2]
1 | CN(C)CCC[C@@]1(c2ccc(F)cc2)OCc2cc(C#N)ccc21 [escitalopram, (S)-1-[3-(dimethyl-amino)propyl]-1-(4-fluorophenyl)-1,3-dihydro-5-isobenzofurancarbonitrile] | significant reduction in water intake | able to inhibit vocalisation completely | prominent effects | –
2 | CN(C)CCCC1(c2ccc(F)cc2)OCc2cc(C#N)ccc21 (racemic) [citalopram, reference compound] | without effect | – | – | 60-70%
